Results from US20230103444A1 (The Regents of the University of Colorado, a Body Corporate, priority 2020, published 2023).
Like-named read-outs stand apart in the source and are kept apart here.

Columns and labels:
HCT116 tumor organoids = experiment: Tumor organoid cytotoxicity (CellTiter-Glo 3D); assay type: cell-based, human
Procedure: Cell based cytotoxicity dose response and combination studies. […] Plates were then incubated for 3 days before treatment.
Cell Line Tumor Organoid Culture.
Tumor Organoid Cytotoxicity.

SW620 tumor organoids = experiment: Tumor organoid cytotoxicity (CellTiter-Glo 3D)
cat-CHD1L ATPase = molecular target: T1, cat-CHD1L ATPase (Homo sapiens, UniProt Q86WJ1); experiment: CHD1L ATPase assay with recombinant catalytic domain (cat-CHD1L); assay type: biochemical; conditions: for inhibition at 20 µM: confirmed HTS hits, HTS at 20 μM, read-out: inhibition against cat-CHD1L ATPase; for CHD1L enzyme inhibition, in words: recombinant cat-CHD1L
T1 construct: inferred from Ni-NTA / imidazole purification; made in house; host or cells: E. coli Rosetta 2 (DE3) pLysS; constructs were a gift from Helena Berglund, Karolinska Institute
T1 sequence (Q86WJ1 16-611 limits assumed): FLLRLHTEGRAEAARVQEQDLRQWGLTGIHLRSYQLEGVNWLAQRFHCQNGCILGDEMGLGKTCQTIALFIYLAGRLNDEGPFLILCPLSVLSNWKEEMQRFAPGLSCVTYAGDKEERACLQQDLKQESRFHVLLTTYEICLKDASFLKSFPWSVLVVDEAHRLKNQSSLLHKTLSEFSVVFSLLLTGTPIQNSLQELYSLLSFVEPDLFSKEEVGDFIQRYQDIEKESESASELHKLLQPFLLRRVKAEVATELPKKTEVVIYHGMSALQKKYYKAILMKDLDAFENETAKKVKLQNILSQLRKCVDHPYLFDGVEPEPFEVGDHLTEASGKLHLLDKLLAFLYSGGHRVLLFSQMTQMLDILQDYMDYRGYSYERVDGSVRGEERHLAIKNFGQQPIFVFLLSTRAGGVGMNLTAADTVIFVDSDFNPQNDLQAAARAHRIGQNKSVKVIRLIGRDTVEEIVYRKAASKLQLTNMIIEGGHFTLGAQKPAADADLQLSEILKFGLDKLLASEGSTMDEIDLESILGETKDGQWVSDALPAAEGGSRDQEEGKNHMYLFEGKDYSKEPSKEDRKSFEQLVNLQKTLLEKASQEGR
Procedure: All reactions were carried out using low volume non-binding surface 384-well plates (Corning Inc., Corning N.Y.). cat-CHD1L or fl-CHD1L (100 nM) and 200 nM c-Myc DNA or mononucelosome (Active Motif, Carlsbad, Calif.) were added to a buffer containing 50 mM Tris pH 7.5, 50 mM NaCl, 1 mM DTT, 5% glycerol, and the reaction was initiated by the addition of 10 μM ATP (New England Biolabs, Ipswich, Mass.) to a total volume of 10 μL and incubated at 37° C. for 1 h. ATPase activity was assayed by adding 500 nM of Phosphate Sensor (Life Technologies, Carlsbad, Calif.), containing labeled phosphate-binding protein, specifically labeled with the fluorophore MDCC, and measuring excitation (430 nm) and emission (450 nm) immediately on an EnVision® plate reader (PerkinElmer, Hopkinton, Mass.). An inorganic phosphate standard curve was used to convert the fluorescence to [Pi], and enzyme kinetics were determined using Prism8 (GraphPad Software, San Diego, Calif.).
Assay composition was the same as described above using cat-CHD1L, except that the reaction mixture volume was modified to accommodate addition of drug or DMSO. Using a Janus® liquid handler (PerkinElmer, Hopkinton, Mass.), a selected amount of compounds dissolved in 100% DMSO were mixed with 50 mM Tris pH 7.5, 50 mM NaCl, 1 mM DTT, 5% glycerol buffer to 200 μM in 10% DMSO. […] The negative control used was 1% DMSO and 10 mM EDTA was used as a positive control. Reactions were initiated with the addition of 10 μM ATP and incubated at 37° C. for 1 h. ATPase activity was measured by fluorescence by adding 500 nM Phosphate Sensor. cat-CHD1L was screened against a 20,000-compound diversity set from Life Chemicals (Woodbridge, Conn.) and a Kinase Inhibitor library from Selleck Chemicals (Houston, Tex.).
CHD1L Enzyme ATPase Assay. […] All reactions were carried out using low volume nonbinding surface 384-well plates (Corning Inc., Corning, N.Y.). […] The reaction was initiated by the addition of 10 μmol/L ATP (New England Biolabs, Ipswich, Mass.) to a total volume of 10 μL and incubated at 37° C. for 1 hour. ATPase activity was measured by adding 500 nmol/L of Phosphate Sensor (ThermoFisher, Waltham, Mass.) measuring excitation (430 nm) and emission (450 nm) immediately on an Envision plate reader (PerkinElmer, Waltham, Mass.). Background signal was determined by using all assay components excluding the enzyme.

[1] = Mouse liver microsome stability; conditions: CD-1, mouse, liver microsomes, pH 7.4, In Vitro Half-Life (Min), second series, different liver microsome preparation
Procedure: Microsome stability. CD-1 mouse microsomes were commercially purchased and the reactions were performed as previously described. […] The master mix was pre-incubated at 37° C. for 5 min, then 1 mM NADPH was added to start the microsomal activity reaction and maintained at 37° C. throughout the time course. Reactions were stopped at 0, 5, 15, 30, 45, and 60 min by adding 200 μL acetonitrile and analyzed by mass spectrometry. The appropriate microsome controls were also performed in the same reaction conditions.

[2] = Homo sapiens, HCT-116, 72 h, Table 6, read-out: 3 D Cytotoxicity 72 hr IC50 (μM) HCT116
[3] = Homo sapiens, SW-620, 72 h, read-out: 3 D Cytotoxicity 72 hr IC50 (μM) SW620
[4] = Table 6, read-out: cat-CHD1L inhibition IC50
[5] = units given with the values (nM, μM), read-out: activity in dose response studies against cat-CHD1L ATPase (IC50, FIG. 1A)
[6] = Homo sapiens, SW-620, read-out: Tumor Organoid Cytotoxicity IC50 (μM) SW620
[7] = Homo sapiens, HCT-116, single agent, Table 4A, read-out: Tumor Organoid Cytotoxicity IC50 (μM) HCT116

SMILES	IC50 (HCT116 tumor organoids; [2]) [µM]	IC50 (SW620 tumor organoids; [3]) [µM]	IC50 (cat-CHD1L ATPase; [4]) [nM]	further results
Cc1cc(NCc2ccc(NC(=O)Cc3cc(Br)cs3)cc2)nc(N2CCN(C)CC2)n1 [Compound 6.44]	14	22.7	1200	–
Cc1cc(NCc2ccc(NC(=O)Cc3cc(Br)cs3)cc2)n2nc(N3CCCC3)nc2n1 [Compound 6.56]	> 40	> 40	2500	–
Cc1cc(N2CCCCC2)nc(NCc2ccc(NC(=O)Cc3cc(Br)cs3)cc2)n1 [Compound 6.47]	9.3	13.8	800	–
Cc1ccc(-c2ccc(S(=O)(=O)NCCN3CCOCC3)cc2)cc1C [Compound 2]	–	–	–	inhibition at 20 µM (cat-CHD1L ATPase): > 50%; IC50 (cat-CHD1L ATPase; [5]): 900 to 5000 nM
COC(=O)C1CCCN1c1nc(C)cc(Nc2ccc(NC(=O)Cc3cc(Br)cs3)cc2)n1 (stereo not drawn) [Compound 6.35]	–	8.6	1800	IC50 (SW620 tumor organoids; Homo sapiens, SW-620, read-out: IC50 of cytotoxicity in SW620 cells): < 10 µM; CHD1L enzyme inhibition, in words (cat-CHD1L ATPase): good enzyme inhibition
COC(=O)C1CCCN1c1nc(C)cc(Nc2ccc(NC(=O)Cc3cccs3)cc2)n1 (stereo not drawn) [Compound 6.34]	–	> 20	3000	–
Cc1cc(Nc2ccc(NC(=O)Cc3cc(Br)cs3)cc2)n2nc(N)nc2n1 [Compound 6.53]	> 40	> 40	> 20000	–
Cc1cc(Nc2ccc(NC(=O)Cn3ccnc3)cc2)nc(N2CCCC2)n1 [Compound 6.50]	26.2	> 40	> 20000	–
O=C(Cc1cc(Br)cs1)Nc1ccc(Nc2cc(C(F)(F)F)nc(N3CCCC3)n2)cc1 [Compound 6.59]	11.9	14.8	1000	–
Cc1cc(N2CCN(C)CC2)nc(NCc2ccc(NC(=O)Cc3cc(Br)cs3)cc2)n1 [Compound 6.45]	10.6	27.2	1400	–
COc1cc(C)c(C(C)C)cc1S(=O)(=O)NCCN1CCOCC1 [Compound 3]	–	–	–	inhibition at 20 µM (cat-CHD1L ATPase): > 50%; IC50 (cat-CHD1L ATPase; [5]): 900 to 5000 nM
Cc1cc(Nc2ccc(NC(=O)Cc3cc(Br)cs3)cc2)n2nc(N3CCCC3)nc2n1 [Compound 6.55]	> 40	> 40	18700	–
O=C(Cc1cccs1)Nc1ccc(Nc2nc(N3CCCC3)ncc2F)cc1 [Compound 6.2, N-(4-((5-fluoro-2-(pyrrolidin-1-yl)pyrimidin-4-yl)amino)phenyl)-2-(thiophen-2-yl)acetamide]	–	> 40	–	half-life at 10 μM [1]: 26.1 min; IC50 (SW620 tumor organoids; [6]): > 40 µM
Cc1cc(Nc2ccc(NC(=O)Cn3ccnc3)cc2)nc(N2CCCCC2)n1 [Compound 6.51]	15.1	40.7	6000	–
Cc1cc(Nc2ccc(NC(=O)Cc3cc(Br)cs3)cc2)nc(N2CCCC2C(=O)O)n1 (stereo not drawn) [Compound 6.36]	–	> 20	> 20000	–
Cc1cc(Nc2ccc(NC(=O)Cc3cc(Br)cs3)cc2)nc(N2CCN(C)CC2)n1 [Compound 6.48]	7.6	21.8	4500	–
Cc1cc(Nc2ccc(NC(=O)Cn3ccnc3)cc2)nc(N2CCN(C)CC2)n1 [Compound 6.52]	> 20	> 20	> 20000	–
Cc1cc(Nc2ccc(NC(=O)Cc3cc(Br)cs3)cc2)nc(N2CCCCC2)n1 [Compound 6.49]	14.7	17	2300	–
O=C(Cc1cc(Br)cs1)Nc1ccc(CNc2cc(C(F)(F)F)nc(N3CCCC3)n2)cc1 [Compound 6.58]	–	–	1400	IC50 (HCT116 tumor organoids; Table 6, read-out: 3 D Cytotoxicity 72 hr IC50 (μM) HCT116): 7.8 µM; IC50 (SW620 tumor organoids; read-out: 3 D Cytotoxicity 72 hr IC50 (μM) SW620, Table 6): 2.2 µM; CHD1L enzyme inhibition, in words (cat-CHD1L ATPase): good enzyme inhibition
Cc1cc(Nc2ccc(NC(=O)Cc3ccccn3)cc2)nc(N2CCCC2)n1 [Compound 6.42]	20.9	–	17700	–
Cc1cc(NCc2ccc(NC(=O)Cc3cc(Br)cs3)cc2)nc(N2CCNCC2)n1 [Compound 6.57]	10.8	14.6	2400	–
Cc1cc(Nc2ccc(NC(=O)/C=C/c3c[nH]c4ccccc34)cc2)nc(N2CCCC2)n1 [Compound 6.8, (E)-3-(1H-indol-3-yl)-N-(4-((6-methyl-2-(pyrrolidin-1-yl)pyrimidin-4-yl)amino)phenyl)-acrylamide]	6.8	4.3	–	IC50 (HCT116 tumor organoids; [7]): 6.85 µM; IC50 (SW620 tumor organoids; [6]): 3.6 µM
Cc1cc(NCc2ccc(NC(=O)Cc3cc(Br)cs3)cc2)n2nc(N)nc2n1 [Compound 6.54]	> 40	> 40	3500	–
Cc1cc(Nc2ccc(NC(=O)CCCc3c[nH]c4ccccc34)cc2)nc(N2CCCC2)n1 [Compound 6.7, 4-(1H-indol-3-yl)-N-(4-((6-methyl-2-(pyrrolidin-1-yl)pyrimidin-4-yl)amino)phenyl)butanamide]	17.6	13	–	IC50 (HCT116 tumor organoids; [7]): 17.6 µM; IC50 (SW620 tumor organoids; [6]): 12.7 µM
Cc1cc(NCc2ccc(NC(=O)Cc3cc(Br)cs3)cc2)nc(N2CCCCC2)n1 [Compound 6.46]	8.3	12.5	700	–
Cc1cc(Nc2ccc(NC(=O)Cc3cccnc3)cc2)nc(N2CCCC2)n1 [Compound 6.43]	19.1	–	10300	–
O=S(=O)(NCCN1CCOCC1)c1ccc(C2CCCCC2)cc1 [Compound 1]	–	–	–	inhibition at 20 µM (cat-CHD1L ATPase): > 50%; IC50 (cat-CHD1L ATPase; [5]): 900 to 5000 nM
Cc1cc(Nc2ccc(NC(=O)Cc3cc(Br)cs3)cc2)nc(N2CCNCC2)n1 [Compound 6.40]	4.8	10.5	11400	–
